Measured values published in US20190254276A1 (priority 2010, published 2019).
Like-named read-outs stand apart in the source and are kept apart here.

Experiments:
TGEV = details: 45% PG eluate; for Reduction Factor: vs T0
BVDV = details: 45% PG eluate; for Titre: Standard titration; for Reduction Factor: vs T0

For propane-1,2-diol [PG], the “Clearance Factor” value (TGEV; Run 1, T = 0 Load Sample) was 0.07 log, the Titre (TGEV; Run 1, T = 0 Load Sample, Standard titration) was 5.12 log10 TCID50/ml and the “Clearance Factor” value (TGEV; Run 1, T = 5 min) was 124 log. For the same substance, the “Log10TICD50 (total viral load)” value (TGEV; Run 1, T = 5 min) was 5.21 Log10TICD50, the Titre (TGEV; Run 1, T = 5 min, Standard titration) was 3.95 log10 TCID50/ml and the “Reduction Factor” value (TGEV; Run 1, T = 5 min) was 1.0 log. The Titre (TGEV; Run 1, T = 15 min, Standard titration) was 2.78 log10 TCID50/ml, the Titre (TGEV; Run 1, T = 60 min, Standard titration) was 132 log10 TCID50/ml and the “Reduction Factor” value (TGEV; Run 1, T = 60 min) was 3.0 log. The “Clearance Factor” value (TGEV; Run 1, T = 180 min) was 4.38 log, the “Log10TICD50 (total viral load)” value (TGEV; Run 1, T = 180 min) was 3.08 Log10TICD50 and the Titre (TGEV; Run 1, T = 180 min, Standard titration) was 0.8 log10 TCID50/ml. The Titre (TGEV; Run 1, T = 360 min, Standard titration) was under 0.8 log10 TCID50/ml, the “Clearance Factor” value (TGEV; Run 2, T = 0 Load Sample) was 0.08 log and the Titre (TGEV; Run 2, T = 0 Load Sample, Standard titration) was 5.28 log10 TCID50/ml. The Titre (TGEV; Run 2, T = 5 min, Standard titration) was 4.26 log10 TCID50/ml, the “Reduction Factor” value (TGEV; Run 2, T = 5 min) was 1 log and the “Log10TICD50 (total viral load)” value (TGEV; Run 2, T = 15 min) was 5.40 Log10TICD50. For the same substance, the Titre (TGEV; Run 2, T = 15 min, Standard titration) was 3.2 log10 TCID50/ml, the “Reduction Factor” value (TGEV; Run 2, T = 15 min) was 8.05 log and the “Clearance Factor” value (TGEV; Run 2, T = 60 min) was 4.50 log. For the same substance, the Titre (TGEV; Run 2, T = 60 min, Standard titration) was 0.8 log10 TCID50/ml, the “Reduction Factor” value (TGEV; Run 2, T = 60 min) was 4.45 log and the Titre (TGEV; Run 2, T = 180 min, 1 LVP (96 wells)) was −0.12 log10 TCID50/ml. The “Reduction Factor” value (TGEV; Run 2, T = 180 min, LVP) was 5.4 log, the Titre (TGEV; Run 2, T = 360 min, 1 LVP (96 wells)) was under −0.12 log10 TCID50/ml and the “Reduction Factor” value (TGEV; Run 2, T = 360 min, LVP) was over 5.40 log. The “Clearance Factor” value (BVDV; Run 1, T = 0 Load Sample) was 0.43 log, the “Clearance Factor” value (BVDV; Run 1, T = 5 min) was 165 log and the “Log10TICD50 (total viral load)” value (BVDV; Run 1, T = 5 min) was 4.53 Log10TICD50. The Titre (BVDV; Run 1, T = 5 min) was 18 log10TCID50/ml, the “Reduction Factor” value (BVDV; Run 1, T = 5 min) was 122 log and the “Clearance Factor” value (BVDV; Run 1, T = 15 min) was 13 log. The “Log10TICD50 (total viral load)” value (BVDV; Run 1, T = 15 min) was 6.50 Log10TICD50, the “Reduction Factor” value (BVDV; Run 1, T = 15 min) was 0.97 log and the “Clearance Factor” value (BVDV; Run 1, T = 60 min) was 13 log. For the same substance, the “Log10TICD50 (total viral load)” value (BVDV; Run 1, T = 60 min) was 4.90 Log10TICD50, the “Reduction Factor” value (BVDV; Run 1, T = 60 min) was 0.97 log and the “Clearance Factor” value (BVDV; Run 1, T = 180 min) was 13 log. The “Log10TICD50 (total viral load)” value (BVDV; Run 1, T = 180 min) was 4.58 Log10TICD50, the “Reduction Factor” value (BVDV; Run 1, T = 180 min) was 0.97 log and the “Clearance Factor” value (BVDV; Run 2, T = 0 Load Sample) was 0.44 log. For the same substance, the “Log10TICD50 (total viral load)” value (BVDV; Run 2, T = 0 Load Sample) was 5.78 Log10TICD50, the Titre (BVDV; Run 2, T = 25) was 132 log10TCID50/ml and the “Reduction Factor” value (BVDV; Run 2, T = 25) was 171 log. The “Clearance Factor” value (BVDV; Run 2, T = 5 min) was 188 log, the Titre (BVDV; Run 2, T = 5 min) was 159 log10TCID50/ml and the “Reduction Factor” value (BVDV; Run 2, T = 5 min) was 144 log. The “Clearance Factor” value (BVDV; Run 2, T = 60 min) was 168 log, the Titre (BVDV; Run 2, T = 60 min) was 189 log10TCID50/ml and the “Reduction Factor” value (BVDV; Run 2, T = 60 min) was 144 log.
